Like-named read-outs stand apart in the source and are kept apart here.
How the values were obtained:
[1] = target: T1, mDOR (Mus musculus, UniProt P32300); assay: biochemical; conditions: for Emax: read-out: Emax mDOR [35S]GTPγS
[2] = target: T2, MOR (Homo sapiens, UniProt P35372); assay: cell-based; conditions: for Emax: HEK-293T, read-out: Emax% cAMP inhibition hMOR
[3] = target: T3, rKOR (Rattus norvegicus, UniProt P34975); assay: cell-based; conditions: for Emax: HEK-293T, read-out: Emax% G protein activation (BRET) rKOR
T3 sequence (P34975 whole entry): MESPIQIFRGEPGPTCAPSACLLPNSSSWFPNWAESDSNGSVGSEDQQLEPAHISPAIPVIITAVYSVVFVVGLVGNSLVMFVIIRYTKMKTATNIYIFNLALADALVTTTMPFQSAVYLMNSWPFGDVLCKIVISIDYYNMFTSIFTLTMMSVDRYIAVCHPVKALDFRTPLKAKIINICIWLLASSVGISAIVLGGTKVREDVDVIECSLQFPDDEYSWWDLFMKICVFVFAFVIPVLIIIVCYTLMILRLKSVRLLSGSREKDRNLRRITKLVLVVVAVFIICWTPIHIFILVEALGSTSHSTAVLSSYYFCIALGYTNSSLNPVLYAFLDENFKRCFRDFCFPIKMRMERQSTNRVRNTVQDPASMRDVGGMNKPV

[4] = target: T2, MOR; assay: cell-based; conditions: for Emax: HTLA, read-out: Emax% arrestin recruitment (Tango) hMOR
[5] = target: T4, mMOR (Mus musculus, UniProt P42866); assay: cell-based; parameters: expressed in transfected cells; host or cells: HEK-293T
T4 sequence (P42866 whole entry): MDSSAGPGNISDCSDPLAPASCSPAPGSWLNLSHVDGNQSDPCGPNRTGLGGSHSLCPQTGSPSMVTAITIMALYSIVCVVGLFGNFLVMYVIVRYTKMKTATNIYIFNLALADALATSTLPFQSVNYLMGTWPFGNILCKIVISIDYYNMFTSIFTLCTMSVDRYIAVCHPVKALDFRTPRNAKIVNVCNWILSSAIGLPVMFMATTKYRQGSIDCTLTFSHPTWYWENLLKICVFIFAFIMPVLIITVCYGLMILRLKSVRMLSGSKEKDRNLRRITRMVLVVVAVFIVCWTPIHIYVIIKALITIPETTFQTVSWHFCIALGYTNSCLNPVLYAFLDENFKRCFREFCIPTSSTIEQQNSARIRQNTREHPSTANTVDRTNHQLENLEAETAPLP

[6] = target: T5, DOR (Homo sapiens, UniProt P41143); assay: cell-based; conditions: for EC50: Tango; for Emax: HTLA, read-out: Emax% arrestin recruitment hDOR
T5 sequence (P41143 whole entry): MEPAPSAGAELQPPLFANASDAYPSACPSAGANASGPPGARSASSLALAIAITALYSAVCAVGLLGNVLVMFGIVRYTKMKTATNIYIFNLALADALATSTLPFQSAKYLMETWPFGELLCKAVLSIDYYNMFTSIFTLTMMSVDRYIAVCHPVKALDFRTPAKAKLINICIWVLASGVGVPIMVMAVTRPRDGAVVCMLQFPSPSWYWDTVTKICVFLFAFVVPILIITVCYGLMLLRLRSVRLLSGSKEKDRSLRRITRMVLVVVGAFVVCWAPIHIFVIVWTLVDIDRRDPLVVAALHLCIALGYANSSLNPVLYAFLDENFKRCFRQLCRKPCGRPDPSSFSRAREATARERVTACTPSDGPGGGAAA

[7] = target: T6, KOR (Homo sapiens, UniProt P41145); assay: cell-based; conditions: for Emax: HTLA, read-out: Emax% arrestin recruitment (Tango) hKOR
T6 sequence (P41145 whole entry): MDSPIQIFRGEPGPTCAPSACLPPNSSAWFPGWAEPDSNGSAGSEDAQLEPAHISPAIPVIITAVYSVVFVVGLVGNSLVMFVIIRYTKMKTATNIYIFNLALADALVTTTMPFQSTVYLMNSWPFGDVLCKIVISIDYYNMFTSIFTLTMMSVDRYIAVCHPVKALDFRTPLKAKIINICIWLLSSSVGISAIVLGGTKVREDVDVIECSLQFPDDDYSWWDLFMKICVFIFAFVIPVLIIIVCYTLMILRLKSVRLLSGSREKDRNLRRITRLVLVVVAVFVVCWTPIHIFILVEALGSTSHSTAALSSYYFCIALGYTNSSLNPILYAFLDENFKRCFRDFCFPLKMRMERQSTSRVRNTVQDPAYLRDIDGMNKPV

[8] = target: T5, DOR; assay: cell-based; conditions: for Emax: HEK-293T, read-out: Emax% cAMP inhibition hDOR
[9] = target: T6, KOR; assay: cell-based; conditions: for EC50: EC50 cAMP inhibition hKOR; for Emax: HEK-293T, read-out: Emax% cAMP inhibition hKOR
[10] = target: T1, mDOR; assay: cell-based; conditions: for EC50: EC50 G protein activation (BRET) mDOR; for Emax: HEK-293T, read-out: Emax% G protein activation (BRET) mDOR
[11] = target: T3, rKOR
[12] = target: T6, KOR; conditions: for Bias factor (cAMP-Tango) hKOR: >1 G protein bias, <1 arrestin bias; for Bias factor (cAMP-Tango) hKOR / ΔlogRA Tango hKOR / ΔlogRA cAMP hKOR: vs U50,488h; for Log RA cAMP hKOR / LogRA Tango hKOR: transduction coefficient log(T/KA)
[13] = target: T1, mDOR; assay: cell-based
[14] = target: T2, MOR
[15] = target: T4, mMOR; assay: cell-based; conditions: for EC50: EC50 G protein activation (BRET) mMOR; for Emax: HEK-293T, read-out: Emax% G protein activation (BRET) mMOR
[16] = target: T3, rKOR; assay: cell-based; conditions: HEK-293T, read-out: Emax% arrestin recruitment (BRET) rKOR
[17] = target: T7, mKOR (Mus musculus, UniProt P33534); assay: biochemical; conditions: for EC50: EC50 mKOR [35S]GTPγS, ± SEM; for Emax: read-out: Emax mKOR [35S]GTPγS
T7 sequence (P33534 whole entry): as the sequence (P34975 whole entry) above, with E11D, A17S, P51S, V308A counted along it

[18] = target: T4, mMOR; assay: biochemical; conditions: for EC50: EC50 mMOR [35S]GTPγS, ± SEM; for Emax: read-out: Emax mMOR [35S]GTPγS
[19] = target: T2, MOR; remark: listed apart in the source
[20] = target: T4, mMOR; assay: biochemical
[21] = target: T7, mKOR; assay: biochemical
[22] = EC50 arrestin recruitment (Tango) hKOR

T2 sequence (P35372 whole entry): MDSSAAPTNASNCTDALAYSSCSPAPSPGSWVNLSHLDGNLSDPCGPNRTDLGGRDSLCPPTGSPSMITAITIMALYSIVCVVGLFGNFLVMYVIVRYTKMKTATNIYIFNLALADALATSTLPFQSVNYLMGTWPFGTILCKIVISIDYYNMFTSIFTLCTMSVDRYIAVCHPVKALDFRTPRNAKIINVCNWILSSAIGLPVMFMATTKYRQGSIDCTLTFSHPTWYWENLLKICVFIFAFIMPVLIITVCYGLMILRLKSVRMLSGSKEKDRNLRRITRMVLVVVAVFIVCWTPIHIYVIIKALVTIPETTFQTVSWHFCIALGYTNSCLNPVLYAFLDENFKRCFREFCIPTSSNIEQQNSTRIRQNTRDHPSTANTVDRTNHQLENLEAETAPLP
T1 sequence (P32300 whole entry): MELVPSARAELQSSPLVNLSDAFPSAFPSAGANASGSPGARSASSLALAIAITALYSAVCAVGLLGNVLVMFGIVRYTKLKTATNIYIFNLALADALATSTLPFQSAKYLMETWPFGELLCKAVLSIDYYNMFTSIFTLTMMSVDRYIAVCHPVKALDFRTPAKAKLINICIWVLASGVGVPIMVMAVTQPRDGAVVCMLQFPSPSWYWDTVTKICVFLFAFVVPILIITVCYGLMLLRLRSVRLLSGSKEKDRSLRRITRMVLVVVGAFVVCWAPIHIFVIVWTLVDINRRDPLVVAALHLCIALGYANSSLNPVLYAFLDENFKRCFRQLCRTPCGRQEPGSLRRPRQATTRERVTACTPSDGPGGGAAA

## O=C(NC1CCC2(O)C3Cc4ccc(O)c5c4C2(CCN3CC2CC2)C1O5)c1cccc(I)c1 (stereo not shown) [IBNtxA]
[1]
  EC50: 4.08 ± 0.67 nM
  Emax: 95 ± 2%
[2]; EC50 cAMP inhibition hMOR
  EC50: 0.07 nM
[2]
  Emax: 95 ± 2%
[3]
  Emax: 101 ± 2.3%
[4]
  EC50: 5.86 nM
  Emax: 29 ± 0.02%
[5]
  EC50: 11.3 µM
[5]; HEK-293T, read-out: Emax% arrestin recruitment (BRET) mMOR
  Emax: 75%
[6]; EC50 arrestin recruitment hDOR
  EC50: 14.1 nM
[6]
  Emax: 224 ± 5%
[6]; pEC50 arrestin recruitment hDOR, ± SEM
  EC50: 15.8 nM
[7]; [22]
  EC50: 0.013 nM
[7]
  Emax: 109 ± 1.8%
[8]; EC50 cAMP inhibition hDOR
  EC50: 0.43 nM
[8]
  Emax: 106 ± 1%
[8]; pEC50 cAMP inhibition hDOR, ± SEM
  EC50: 0.501 nM
[9]; cell printed in pM
  EC50: 2.46 pM
[9]
  Emax: 101 ± 1.79%
[10]
  EC50: 0.48 nM
  Emax: 108 ± 3.7%
[11]
  Log RA BRET-G rKOR: 10.19±0.141
  LogRA BRET-Arr rKOR: 8.846±0.266
  ΔΔlog RA (BRETG-BRETArr) rKOR: -0.218±0.388
[11]; vs U50,488h
  ΔlogRA BRET-G rKOR: 2.64±0.175
  ΔlogRA BRET-arr rKOR: 2.858±0.346
[12]
  ΔΔlog RA (cAMP-Tango) hKOR: -1.002±0.052
  Bias factor (cAMP-Tango) hKOR: 0.1
  Log RA cAMP hKOR: 11.59±0.036
  LogRA Tango hKOR: 10.89±0.010
  ΔlogRA Tango hKOR: 2.53±0.015
  ΔlogRA cAMP hKOR: 1.53±0.050
[13]; EC50 arrestin recruitment (BRET) mDOR
  EC50: 26.6 nM
[13]; HEK-293T, read-out: Emax% arrestin recruitment (BRET) mDOR
  Emax: 88 ± 6.8%
[13]; pEC50 arrestin recruitment (BRET) mDOR, ± SEM
  EC50: 31.6 nM
[14]
  Bias factor (cAMP-Tango) hMOR: 24
  Log RA cAMP hMOR: 9.99±0.081
  LogRA Tango hMOR: 7.572±0.25
  ΔlogRA Tango hMOR: -0.25±0.25
  ΔlogRA cAMP hMOR: 1.14±0.11
  ΔΔlog RA (cAMP-Tango) hMOR: 1.38±0.28
[15]
  EC50: 0.054 nM
  Emax: 59%
[16]
  Emax: 133 ± 7.3%
[17]
  EC50: 0.22 ± 0.02 nM
  Emax: 102 ± 4%
[18]
  EC50: 0.49 ± 0.12 nM
  Emax: 101 ± 3%

## NCc1ccc(C(=O)N[C@@H]2CC[C@H]3[C@H]4Cc5ccc(O)c6c5[C@@]3(CCN4CC3CC3)[C@H]2O6)cc1 [MP1209, 4-(Aminomethyl)-N-((4R,4aR,7R,7aR,12bS)−3-(cyclopropylmethyl)−9-hydroxy-2,3,4,4a,5,6,7,7a-octahydro-1H-4,12-methano[1]benzofuro[3,2-e]isoquinolin-7-yl)benzamide]
[2]
  Emax: 98.5 ± 0.96%
[2]; pEC50 cAMP inhibition hMOR
  EC50: 0.245 nM
[7]
  Emax: 67 ± 3%
[7]; pEC50 arrestin recruitment (Tango) hKOR, ± SEM
  EC50: 0.372 nM
[9]
  EC50: 24 pM
  Emax: 100 ± 1.23%
[12]
  ΔΔlog RA (cAMP-Tango) hKOR: -0.238±0.32
  Log RA cAMP hKOR: 10.55±0.06
  LogRA Tango hKOR: 8.735±0.220
  ΔlogRA Tango hKOR: 0.368±0.31
  ΔlogRA cAMP hKOR: 0.13±0.084
[19]
  arrestin recruitment at hMOR (in words): null arrestin recruitment

## O=C(N[C@@H]1CC[C@H]2[C@H]3Cc4ccc(O)c5c4[C@@]2(CCN3CC2CC2)[C@H]1O5)c1cccc(CO)c1 [MP1210, N-((4R,4aR,7R,7aR,12bS)−3-(cyclopropylmethyl)−9-hydroxy-2,3,4,4a,5,6,7,7a-octahydro-1H-4,12-methano[1]benzofuro[3,2-e]isoquinolin-7-yl)−3-(hydroxymethyl)benzamide]
[2]
  Emax: 94.6 ± 0.98%
[2]; pEC50 cAMP inhibition hMOR
  EC50: 0.155 nM
[7]; [22]
  EC50: 1.16 nM
[7]
  Emax: 63 ± 3.3%
[9]
  EC50: 25 pM
  Emax: 101 ± 1.1%
[12]
  ΔΔlog RA (cAMP-Tango) hKOR: -0.28±0.19
  Log RA cAMP hKOR: 10.59±0.06
  LogRA Tango hKOR: 8.576±0.156
  ΔlogRA Tango hKOR: 0.48±0.18
  ΔlogRA cAMP hKOR: 0.2±0.081
[19]
  arrestin recruitment at hMOR (in words): null arrestin recruitment

## CO[C@@]12CC[C@@H](NC(=O)c3cccc(I)c3)C3Oc4c(O)ccc5c4[C@@]31CCN(CC1CC1)C2C5 (stereo partly drawn) [MP1305, N-((4aS,7R,12bS)−3-(Cyclopropylmethyl)−9-hydroxy-4a-methoxy-2,3,4,4a,5,6,7,7a-octahydro-1H-4,12-methanobenzofuro[3,2-e]isoquinolin-7-yl)−3-iodobenzamide]
[1]
  Emax: 22 ± 0.9%
[2]; EC50 cAMP inhibition hMOR
  EC50: 0.12 nM
[2]
  Emax: 69 ± 1.8%
[3]
  EC50: 5.04 nM
  Emax: 35 ± 3%
[4]
  EC50: 16.4 nM
  Emax: 21 ± 3%
[6]; EC50 arrestin recruitment hDOR
  EC50: 228 nM
[6]
  Emax: 89 ± 2.8%
[7]; [22]
  EC50: 25.7 nM
[7]
  Emax: 75 ± 1%
[8]; EC50 cAMP inhibition hDOR
  EC50: 74.2 nM
[8]
  Emax: 71 ± 2.4%
[20]
  Ki: 0.25 ± 0.02 nM
[9]
  EC50: 720 pM
  Emax: 102 ± 1.2%
[10]
  EC50: 40.4 nM
  Emax: 105 ± 5.9%
[12]
  ΔΔlog RA (cAMP-Tango) hKOR: 0.55±0.04
  Bias factor (cAMP-Tango) hKOR: 4
  Log RA cAMP hKOR: 9.22±0.012
  LogRA Tango hKOR: 7.17±0.025
  ΔlogRA Tango hKOR: -1.341±0.036
  ΔlogRA cAMP hKOR: -0.79±0.017
[14]
  Bias factor (cAMP-Tango) hMOR: 11
  Log RA cAMP hMOR: 9.79±0.053
  LogRA Tango hMOR: 6.89±0.048
  ΔlogRA Tango hMOR: 0.109±0.049
  ΔlogRA cAMP hMOR: 1.17±0.076
  ΔΔlog RA (cAMP-Tango) hMOR: 1.059±0.090
[15]
  EC50: 0.74 nM
  Emax: 72 ± 2%
[17]
  EC50: 7.4 ± 1.8 nM
  Emax: 42.2 ± 5.3%
[21]
  Ki: 2.5 ± 0.3 nM
[18]
  EC50: 0.7 ± 0.1 nM
  Emax: 81.2 ± 16%

Reference: publication PMC7909954 (eLife, 2021)
